Measured values published in patent US20250263644A1, “COMPOSITIONS COMPRISING YEAST CELLS AND POLYPHENOLS AND THEIR USE” (INSTITUT NATIONAL D'ETUDES SUPERIEURES AGRONOMIQUES DE …, priority 2015, published 2025).

How the values were obtained:
yeast cells [1] = assay: Evaluation of the reversibility of polyphenol adsorption; format: binding, Saccharomyces cerevisiae; conditions: pellets re-suspended in model wine without polyphenols, 24 h; FIG. 7b
Procedure: The yeast pellets obtained by centrifugation after adsorption above were re-suspended in 2 ml of a model wine without polyphenols. Samples were stirred for 24 h and the supernatants recovered. The adsorption reversibility was evaluated through the quantity of polyphenols recovered in supernatants.

yeast cells [2] = assay: Adsorption isotherms: polyphenols adsorbed by yeast; format: binding, Saccharomyces cerevisiae; conditions: 24 h contact in model wine, 10^8 cells/mL, A280 of supernatant; FIG. 7a
Procedure: A contact time of 24 h was chosen for adsorption experiments. A stock solution of polyphenols with a molecular weight below 620 Da was prepared by dissolving catechin powder in a model wine at a concentration of 10 g/L. A stock solution of polyphenols with a molecular weight above 620 Da was prepared by dissolving grape skin tannins with a DPm of 20 in a model wine at a concentration of 10 g/L
Dilutions of both stock solutions were performed to get a final concentration range between 0.01 and 5 g/L. All sorption experiments were carried out by mixing equal volumes of a 2×g·L^−1 polyphenol solution (x being the final desired polyphenol concentration) and of a 2·10^8 cells/mL suspension (final concentration 10^8 cells/mL). Samples (2 ml) were placed in a 2 mL tightly closed Eppendorf in order to minimize headspace and were stirred continuously (Stuart rotator SB3, 40 rpm) in absence of light and at room temperature. […] The total polyphenol concentrations in the bulk were determined by absorbency measurements at 280 nm after adequate dilution. Total encapsulated polyphenol with a molecular weight below 620 Da and total encapsulated polyphenols with a molecular weight above 620 Da were calculated from the difference in absorbency between the samples and the corresponding controls using: […]

catechin
reversibility of interactions between yeast and adsorbed polyphenols (yeast cells [1]): fully reversible
amounts of polyphenols adsorbed by yeast, compared with DPm 20 (yeast cells [2]): about 10 times lower
